{
  "source": "ChEMBL document CHEMBL2321873",
  "about": "“1-(4-Phenylpiperazin-1-yl)-2-(1H-pyrazol-1-yl)ethanones as novel CCR1 antagonists” (Bioorg Med Chem Lett, 2013)",
  "key": {"[1]": {"target": "C-X-C chemokine receptor type 6 (Homo sapiens) (UniProt O00574)", "sequence (O00574 whole entry, looked up)": "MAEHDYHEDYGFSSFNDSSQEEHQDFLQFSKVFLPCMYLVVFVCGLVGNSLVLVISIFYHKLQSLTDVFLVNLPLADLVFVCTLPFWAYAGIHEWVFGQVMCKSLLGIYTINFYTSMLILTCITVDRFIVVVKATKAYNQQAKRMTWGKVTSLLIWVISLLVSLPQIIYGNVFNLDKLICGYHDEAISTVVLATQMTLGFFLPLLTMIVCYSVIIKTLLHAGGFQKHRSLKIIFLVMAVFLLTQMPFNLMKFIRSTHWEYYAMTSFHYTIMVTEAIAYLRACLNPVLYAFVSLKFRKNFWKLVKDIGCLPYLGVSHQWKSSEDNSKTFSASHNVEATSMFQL", "experiment": "Antagonist activity at CXCR6 (unknown origin) assessed as inhibition of chemotaxis at 10 uM"}, "[2]": {"target": "T1, C-X-C chemokine receptor type 2 (Homo sapiens) (UniProt P25025)", "T1 sequence (whole entry)": "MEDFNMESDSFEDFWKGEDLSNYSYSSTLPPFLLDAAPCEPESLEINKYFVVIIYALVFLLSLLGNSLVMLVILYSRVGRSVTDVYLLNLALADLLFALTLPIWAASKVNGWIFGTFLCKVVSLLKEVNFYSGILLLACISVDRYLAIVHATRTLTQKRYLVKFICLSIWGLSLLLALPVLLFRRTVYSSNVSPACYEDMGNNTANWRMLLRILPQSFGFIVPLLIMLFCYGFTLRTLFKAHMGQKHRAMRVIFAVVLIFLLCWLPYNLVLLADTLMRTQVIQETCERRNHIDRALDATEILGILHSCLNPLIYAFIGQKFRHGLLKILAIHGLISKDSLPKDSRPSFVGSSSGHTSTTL", "experiment": "Antagonist activity at CXCR2 (unknown origin) assessed as inhibition of chemotaxis at 10 uM"}, "[3]": {"target": "T2, C-C chemokine receptor-like 2 (Homo sapiens) (UniProt O00421)", "T2 sequence (whole entry)": "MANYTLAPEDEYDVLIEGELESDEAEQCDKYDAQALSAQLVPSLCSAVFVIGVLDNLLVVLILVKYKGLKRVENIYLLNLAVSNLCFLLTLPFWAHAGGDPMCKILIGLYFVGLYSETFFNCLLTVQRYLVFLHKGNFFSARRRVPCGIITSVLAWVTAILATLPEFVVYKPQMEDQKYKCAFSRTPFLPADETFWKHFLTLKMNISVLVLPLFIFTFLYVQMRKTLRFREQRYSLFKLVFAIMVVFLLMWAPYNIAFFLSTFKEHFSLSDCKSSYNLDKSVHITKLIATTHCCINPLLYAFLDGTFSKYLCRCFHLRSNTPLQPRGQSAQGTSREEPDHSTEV", "experiment": "Antagonist activity at CCR11 (unknown origin) assessed as inhibition of calcium flux at 10 uM", "assay_type": "functional"}, "[4]": {"target": "T3, C-C chemokine receptor type 10 (Homo sapiens) (UniProt P46092)", "T3 sequence (whole entry)": "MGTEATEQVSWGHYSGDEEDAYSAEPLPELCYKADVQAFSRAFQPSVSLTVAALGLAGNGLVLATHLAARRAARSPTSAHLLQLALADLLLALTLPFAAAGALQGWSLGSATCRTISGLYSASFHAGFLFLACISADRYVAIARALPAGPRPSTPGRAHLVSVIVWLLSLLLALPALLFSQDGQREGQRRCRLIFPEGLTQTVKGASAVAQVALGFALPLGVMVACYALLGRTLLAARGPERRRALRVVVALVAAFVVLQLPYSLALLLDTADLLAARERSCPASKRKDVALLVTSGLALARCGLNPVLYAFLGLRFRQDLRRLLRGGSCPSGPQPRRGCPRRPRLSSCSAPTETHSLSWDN", "experiment": "Antagonist activity at CCR10 (unknown origin) assessed as inhibition of calcium flux at 10 uM", "assay_type": "functional"}, "[5]": {"target": "T4, C-C chemokine receptor type 7 (Homo sapiens) (UniProt P32248)", "T4 sequence (whole entry)": "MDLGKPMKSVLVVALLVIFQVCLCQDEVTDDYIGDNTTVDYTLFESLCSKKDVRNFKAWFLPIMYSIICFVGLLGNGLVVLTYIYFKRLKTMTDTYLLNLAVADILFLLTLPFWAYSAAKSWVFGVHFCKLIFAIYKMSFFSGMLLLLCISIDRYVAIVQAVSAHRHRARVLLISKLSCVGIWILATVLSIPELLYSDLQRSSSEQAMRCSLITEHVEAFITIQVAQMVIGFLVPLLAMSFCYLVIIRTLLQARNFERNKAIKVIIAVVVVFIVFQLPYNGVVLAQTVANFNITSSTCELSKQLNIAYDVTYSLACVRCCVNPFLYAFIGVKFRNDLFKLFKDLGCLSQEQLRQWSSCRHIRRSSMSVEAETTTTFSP", "experiment": "Antagonist activity at CCR7 (unknown origin) assessed as inhibition of calcium flux at 10 uM", "assay_type": "functional"}, "Cytomegalovirus": {"tested_on": "Cytomegalovirus", "experiment": "Binding affinity to CMV US28 at 10 uM by radioligand displacement assay"}, "[6]": {"target": "T5, Atypical chemokine receptor 1 (Homo sapiens) (UniProt Q16570)", "T5 sequence (whole entry)": "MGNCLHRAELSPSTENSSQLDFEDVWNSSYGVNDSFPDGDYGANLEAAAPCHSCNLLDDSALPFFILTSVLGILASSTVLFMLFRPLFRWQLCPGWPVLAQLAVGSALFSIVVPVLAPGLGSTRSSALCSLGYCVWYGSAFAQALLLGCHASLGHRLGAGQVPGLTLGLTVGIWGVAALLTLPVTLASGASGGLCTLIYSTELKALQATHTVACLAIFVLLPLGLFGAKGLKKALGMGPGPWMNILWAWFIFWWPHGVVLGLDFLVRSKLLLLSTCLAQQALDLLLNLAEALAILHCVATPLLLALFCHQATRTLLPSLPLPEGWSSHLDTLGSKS", "experiment": "Binding affinity to Duffy (unknown origin) at 10 uM by radioligand displacement assay"}, "[7]": {"target": "T6, C-X-C chemokine receptor type 5 (Homo sapiens) (UniProt P32302)", "T6 sequence (whole entry)": "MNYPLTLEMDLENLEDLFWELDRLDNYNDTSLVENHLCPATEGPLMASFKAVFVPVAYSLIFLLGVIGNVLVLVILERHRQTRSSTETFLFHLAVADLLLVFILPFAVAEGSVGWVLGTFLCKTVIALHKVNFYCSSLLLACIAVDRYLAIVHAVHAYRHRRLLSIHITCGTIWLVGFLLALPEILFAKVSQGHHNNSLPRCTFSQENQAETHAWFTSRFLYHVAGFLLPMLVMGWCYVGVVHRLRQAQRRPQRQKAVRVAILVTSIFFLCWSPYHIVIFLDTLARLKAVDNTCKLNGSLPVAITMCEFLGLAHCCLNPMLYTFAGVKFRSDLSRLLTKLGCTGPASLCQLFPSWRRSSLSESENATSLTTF", "experiment": "Binding affinity to CXCR5 (unknown origin) at 10 uM by radioligand displacement assay"}, "Cytochrome P450 2D6": {"target": "Cytochrome P450 2D6 (Homo sapiens, UniProt P10635)", "sequence (P10635 whole entry)": "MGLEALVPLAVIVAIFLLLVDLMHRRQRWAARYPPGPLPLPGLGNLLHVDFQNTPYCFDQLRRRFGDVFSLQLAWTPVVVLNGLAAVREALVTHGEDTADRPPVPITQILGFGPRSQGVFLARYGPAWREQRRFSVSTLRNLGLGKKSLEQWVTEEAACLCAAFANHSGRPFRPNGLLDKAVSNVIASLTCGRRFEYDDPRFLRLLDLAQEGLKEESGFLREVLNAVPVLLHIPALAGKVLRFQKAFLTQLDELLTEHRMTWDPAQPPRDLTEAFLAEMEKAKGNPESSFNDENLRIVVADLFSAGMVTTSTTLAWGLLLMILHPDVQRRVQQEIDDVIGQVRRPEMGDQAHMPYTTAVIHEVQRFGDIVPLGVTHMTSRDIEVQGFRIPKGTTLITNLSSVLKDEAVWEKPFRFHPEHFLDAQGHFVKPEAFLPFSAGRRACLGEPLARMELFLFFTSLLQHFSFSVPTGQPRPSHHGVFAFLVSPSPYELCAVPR", "experiment": "Competitive inhibition of CYP2D6 (unknown origin)", "assay_type": "ADME"}, "[8]": {"experiment": "Oral bioavailability in Sprague-Dawley rat at 5 mg/kg", "assay_type": "ADME, organism-based", "conditions": "in vivo"}},
  "note": "pIC50: −log10 of the molar value. Active and inactive are the calls of the source. The calls are words filed in the database; no cut-off is given here.",
  "data": [
    {"smiles": "COc1cc(N2CCN(C(=O)Cn3nc(C(F)(F)F)c(Cl)c3C)CC2)ccc1Cl", "values": [
      {"measurement": "inhibition", "setting": "[1]", "result": "inactive"},
      {"measurement": "inhibition", "setting": "[2]", "result": "inactive"},
      {"measurement": "inhibition", "setting": "[3]", "result": "inactive"},
      {"measurement": "inhibition", "setting": "[4]", "result": "inactive"},
      {"measurement": "inhibition", "setting": "[5]", "result": "inactive"},
      {"measurement": "Activity", "setting": "Cytomegalovirus", "result": "inactive"},
      {"measurement": "Activity", "setting": "[6]", "result": "inactive"},
      {"measurement": "Activity", "setting": "[7]", "result": "inactive"},
      {"measurement": "pIC50", "setting": "Cytochrome P450 2D6", "result": "< 5.00"},
      {"measurement": "bioavailability", "setting": "[8]", "result": 52, "unit": "%"}
    ]}
  ]
}
